We go through three compounds from patent publication US9475776B2, “PRMT1 inhibitors and uses thereof” (Epizyme, Inc., priority 2013, dated 2016).

The test system of assay [1] is mono-methyl arginine in RKO cells. As to the kind of experiment: RKO methylation assay (In Cell Western for mono-methyl arginine and DNA content). The note with it: 72 hours, percent activation of mono-methyl arginine signal normalised to DNA content. It counts as cell-based. From the text: RKO adherent cells were purchased from ATCC (American Type Culture Collection), Manassas, Va., USA. DMEM/Glutamax medium, penicillin-streptomycin, heat inactivated fetal bovine serum, 0.05% trypsin and D-PBS were purchased from Life Technologies, Grand Island, N.Y., USA. Odyssey blocking buffer, 800CW goat anti-rabbit IgG (H+L) antibody, and Licor Odyssey infrared scanner were purchased from Licor Biosciences, Lincoln, Nebr., USA. Mono-methyl arginine antibody was purchased from Cell Signaling Technology, Danvers, Mass., USA.
Methanol was purchased from VWR, Franklin, Mass., USA. 10% Tween 20 was purchased from KPL, Inc., Gaithersburg, Md., USA. DRAQ5 was purchased from Biostatus Limited, Leicestershire, UK. […]
First, the ratio for each well was determined by:
Each plate included fourteen control wells of DMSO only treatment (minimum activation) as well as fourteen control wells for maximum activation treated with 20 μM of a reference compound. The average of the ratio values for each control type was calculated and used to determine the percent activation for each test well in the plate. […] Percent activation was determined and EC30 curves were generated using triplicate wells per concentration of compound.

The target in the next assay is T1, PRMT1 (Homo sapiens, UniProt Q99873).
T1 construct: GST-tagged PRMT1; made in house; host or cells: High Five insect cells (baculovirus, pFastBacI)
T1 sequence (Q99873 with tags, fused parts or gaps): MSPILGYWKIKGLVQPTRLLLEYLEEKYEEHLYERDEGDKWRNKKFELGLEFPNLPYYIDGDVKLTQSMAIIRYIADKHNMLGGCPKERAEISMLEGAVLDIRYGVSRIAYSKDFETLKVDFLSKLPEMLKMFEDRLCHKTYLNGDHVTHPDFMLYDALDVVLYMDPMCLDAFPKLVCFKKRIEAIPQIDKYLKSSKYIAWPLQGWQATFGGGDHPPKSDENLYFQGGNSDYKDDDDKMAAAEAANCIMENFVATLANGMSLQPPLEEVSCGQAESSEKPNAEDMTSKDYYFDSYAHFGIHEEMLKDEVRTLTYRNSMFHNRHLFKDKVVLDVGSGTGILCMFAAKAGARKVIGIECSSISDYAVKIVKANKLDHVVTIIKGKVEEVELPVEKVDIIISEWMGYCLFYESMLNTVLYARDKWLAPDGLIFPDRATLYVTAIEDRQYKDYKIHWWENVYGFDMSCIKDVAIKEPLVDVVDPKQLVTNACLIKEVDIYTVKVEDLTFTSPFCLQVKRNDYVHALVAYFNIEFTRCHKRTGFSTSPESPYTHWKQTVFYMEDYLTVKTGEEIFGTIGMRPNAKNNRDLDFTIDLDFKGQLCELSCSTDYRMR
Put plainly: PRMT1 biochemical assay (3H-SAM Flashplate, histone H4 peptide substrate). The note with it: GST-tagged full-length human PRMT1 0.5 nM, 30 min preincubation, peptide 20 nM. From the text:
S-adenosylmethionine (SAM), S-adenosylhomocysteine (SAH), bicine, Tween20, dimethylsulfoxide (DMSO), bovine skin gelatin (BSG), and Tris(2-carboxyethyl)phosphine hydrochloride solution (TCEP) were purchased from Sigma-Aldrich at the highest level of purity possible. ^3H-SAM was purchase from American Radiolabeled Chemicals with a specific activity of 80 Ci/mmol. 384-well streptavidin Flashplates were purchased from PerkinElmer.
Peptide representative of human histone H4 residues 36-50 was synthesized with an N-terminal linker-affinity tag motif and a C-terminal amide cap by 21st Century Biochemicals. The peptide was purified by high-performance liquid chromatography (HPLC) to greater than 95% purity and confirmed by liquid chromatography mass spectrometry (LC-MS). The sequence was Biot-Ahx-RLARRGGVKRISGLI-amide (SEQ ID NO.: 1).
Full-length human PRMT1 isoform 1 (NM_001536.5) transcript clone was amplified from an HEK 293 cDNA library, incorporating flanking 5′ sequence encoding a FLAG tag (DYKDDDDK) (SEQ ID NO.:2) fused directly to Met 1 of PRMT1. The amplified gene was subcloned into pFastBacI (Life Technologies) modified to encode an N-terminal GST tag and a TEV cleavage sequence ([…] […] […] […]) (SEQ ID NO.:3) fused to Asp of the Flag tag of PRMT1.
Recombinant baculovirus were generated according to Bac-to-Bac kit instructions (Life Technologies). Protein over-expression was accomplished by infecting exponentially growing High Five insect cell culture at 1.5×10^6 cell/ml with 1:100 ratio of virus. Infections were carried out at 27° C. for 48 hours, harvested by centrifugation, and stored at −80° C. for purification. […]

For the compound `C=CC(=O)Nc1ccc(-c2[nH]ncc2CN(C)CCNC)cc1` [Compound 2, N-(4-(4-((methyl(2-(methylamino)ethyl)amino)methyl)-1H-pyrazol-3-yl)phenyl)acrylamide], the “In Cell Western EC30” value in assay [1] is “C (“C” indicates an EC30 ≧ 12.01 μM)”. The compound also had an IC50 against PRMT1 of 101 to 1000 nM.

Turning to `C=C(C)C(=O)Nc1ccc(-c2[nH]ncc2CN(C)CCNC)cc1` [Compound 1, N-(4-(4-((methyl(2-(methylamino)ethyl)amino)methyl)-1H-pyrazol-3-yl)phenyl)methacrylamide], the “In Cell Western EC30” value in assay [1] is listed as “B (“B” indicates an EC30 of 3.01-12.00 μM)”. Moreover, the IC50 at PRMT1 is below 100 nM.

As for “3-methyl-N-(3-(4-((methyl (2-(methylamino)ethyl)amino)methyl)-1H-pyrazol-3-yl)phenyl)but-2-enamide [Compound 3]”, on PRMT1, the half-inhibitory concentration (IC50) is 101 to 1000 nM.

The term IC50 denotes the concentration needed to halve the response being measured.
